From ChEMBL document CHEMBL1909514, “Imidazo[2,1-b]thiazole guanylhydrazones as RSK2 inhibitors” (Eur J Med Chem, 2011)
The source made the active and inactive calls.

Columns and labels:
[1] = target: T1, Ribosomal protein S6 kinase alpha-3 (Homo sapiens, UniProt P51812)
Description: Inhibition of RSK2 assessed as inhibition of substrate phosphorylation using fluorescent peptide substrate by microplate reader assay

[2] = target: Serine/threonine-protein kinase Chk2 (Homo sapiens, UniProt O96017)
Description: Inhibition of CHK2 assessed as inhibition of substrate phosphorylation using fluorescent peptide substrate by microplate reader assay

MCF-10A = assay: Antiproliferative activity against human MCF10A cells assessed as reduction in cell viability after 48 hrs celltiter glo assay; type: cell-based
[3] = target: T2, Serine/threonine-protein kinase Chk1 (Homo sapiens, UniProt O14757)
T2 sequence (O14757 whole entry): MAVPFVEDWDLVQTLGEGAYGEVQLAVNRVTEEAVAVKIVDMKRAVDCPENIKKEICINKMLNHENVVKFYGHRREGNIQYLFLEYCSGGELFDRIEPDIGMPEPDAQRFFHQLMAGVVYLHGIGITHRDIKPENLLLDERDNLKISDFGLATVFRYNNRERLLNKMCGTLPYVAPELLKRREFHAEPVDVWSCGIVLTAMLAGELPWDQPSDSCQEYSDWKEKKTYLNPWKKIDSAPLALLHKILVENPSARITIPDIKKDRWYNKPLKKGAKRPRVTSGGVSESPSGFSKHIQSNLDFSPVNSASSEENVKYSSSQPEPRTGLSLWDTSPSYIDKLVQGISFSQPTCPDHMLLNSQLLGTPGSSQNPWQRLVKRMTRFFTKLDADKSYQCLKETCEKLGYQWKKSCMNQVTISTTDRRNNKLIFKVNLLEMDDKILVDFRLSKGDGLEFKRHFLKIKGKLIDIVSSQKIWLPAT
Description: Inhibition of CHK1 assessed as inhibition of substrate phosphorylation using fluorescent peptide substrate by microplate reader assay

MCF7 = assay: Antiproliferative activity against human MCF7 cells assessed as reduction in cell viability after 48 hrs celltiter glo assay; type: functional, cell-based
[4] = target: T1, Ribosomal protein S6 kinase alpha-3; assay: Inhibition of RSK2-mediated GSK3-beta Ser9 phosphorylation in TPA-induced human MCF7 cells at 10 nM pretreated for 30 mins by immunoblotting; type: cell-based
[5] = target: T1, Ribosomal protein S6 kinase alpha-3; assay: Inhibition of RSK2-mediated GSK3alpha Ser21 phosphorylation in TPA-induced human MCF7 cells at 10 nM pretreated for 30 mins by immunoblotting; type: cell-based
[6] = target: T3, Aurora kinase A (Homo sapiens) (UniProt O14965); assay: Inhibition of Aurora kinase A assessed as inhibition of substrate phosphorylation using fluorescent peptide substrate up to 100 uM by microplate reader assay
T3 sequence (whole entry): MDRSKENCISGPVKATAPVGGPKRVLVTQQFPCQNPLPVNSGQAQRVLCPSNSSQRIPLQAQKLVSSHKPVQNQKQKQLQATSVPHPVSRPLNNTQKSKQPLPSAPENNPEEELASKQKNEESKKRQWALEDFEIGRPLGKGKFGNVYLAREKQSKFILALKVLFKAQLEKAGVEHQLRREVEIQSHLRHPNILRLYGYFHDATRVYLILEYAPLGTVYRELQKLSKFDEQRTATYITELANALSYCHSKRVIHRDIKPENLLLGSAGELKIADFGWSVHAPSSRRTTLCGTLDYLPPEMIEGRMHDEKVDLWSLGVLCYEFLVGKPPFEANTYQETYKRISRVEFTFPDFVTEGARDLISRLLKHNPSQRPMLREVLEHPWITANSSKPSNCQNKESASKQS

Sequence of Serine/threonine-protein kinase Chk2 (O96017 whole entry): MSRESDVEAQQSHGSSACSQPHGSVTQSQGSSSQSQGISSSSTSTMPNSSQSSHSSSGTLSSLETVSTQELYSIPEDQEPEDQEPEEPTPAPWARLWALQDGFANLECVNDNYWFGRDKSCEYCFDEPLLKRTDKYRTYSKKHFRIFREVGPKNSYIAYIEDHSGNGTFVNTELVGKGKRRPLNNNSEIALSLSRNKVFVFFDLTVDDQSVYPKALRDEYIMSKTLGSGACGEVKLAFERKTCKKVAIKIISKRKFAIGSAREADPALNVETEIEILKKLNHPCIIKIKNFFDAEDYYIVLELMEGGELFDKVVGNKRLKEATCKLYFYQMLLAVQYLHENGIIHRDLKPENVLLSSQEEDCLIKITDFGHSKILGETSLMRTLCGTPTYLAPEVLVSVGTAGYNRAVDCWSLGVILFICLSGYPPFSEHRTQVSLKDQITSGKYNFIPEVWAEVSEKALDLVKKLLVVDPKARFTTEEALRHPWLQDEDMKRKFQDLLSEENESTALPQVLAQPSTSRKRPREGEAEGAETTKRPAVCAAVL
T1 sequence (P51812 whole entry): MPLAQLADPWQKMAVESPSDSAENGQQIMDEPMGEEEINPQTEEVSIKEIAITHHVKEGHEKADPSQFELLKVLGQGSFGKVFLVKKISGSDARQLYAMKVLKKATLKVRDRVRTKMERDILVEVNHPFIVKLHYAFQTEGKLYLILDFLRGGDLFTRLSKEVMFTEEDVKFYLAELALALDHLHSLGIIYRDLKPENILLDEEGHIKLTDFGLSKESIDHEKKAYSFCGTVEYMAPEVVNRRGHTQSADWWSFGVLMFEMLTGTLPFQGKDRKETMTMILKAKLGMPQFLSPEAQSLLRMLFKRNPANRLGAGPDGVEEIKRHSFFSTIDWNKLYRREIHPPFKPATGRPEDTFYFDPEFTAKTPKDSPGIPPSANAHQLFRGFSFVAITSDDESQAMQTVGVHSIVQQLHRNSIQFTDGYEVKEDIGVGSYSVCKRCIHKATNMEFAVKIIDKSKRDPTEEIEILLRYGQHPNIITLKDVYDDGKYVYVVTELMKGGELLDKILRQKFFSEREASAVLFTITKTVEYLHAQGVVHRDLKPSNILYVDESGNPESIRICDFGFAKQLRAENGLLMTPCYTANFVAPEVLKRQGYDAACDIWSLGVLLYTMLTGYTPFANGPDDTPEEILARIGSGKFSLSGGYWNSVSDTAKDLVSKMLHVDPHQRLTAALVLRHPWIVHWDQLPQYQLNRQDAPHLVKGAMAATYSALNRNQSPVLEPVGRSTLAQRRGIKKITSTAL

SMILES	IC50 [1] [µM]	IC50 [2] [µM]	IC50 [3] [µM]	inhibition [4] [%]	inhibition [5] [%]	inhibition [6]	Activity (MCF-10A)	Activity (MCF7)
Cc1cn2c(/C=N/NC(=N)N)c(-c3ccc([N+](=O)[O-])cc3)nc2s1.Cl	2.8	83	> 100				Toxic	Active
Cl.N=C(N)N/N=C\c1c(-c2ccc([N+](=O)[O-])cc2)nc2sc(F)cn12	2.15	56.5	> 100	50	50	inactive	Non-toxic	Active
COc1cc([N+](=O)[O-])c(OC)cc1-c1nc2ccccn2c1/C=N/NC(=N)N	7.8	> 100	> 100			inactive		
N=C(N)N/N=C/c1c(-c2ccc(F)c([N+](=O)[O-])c2)nc2sc(Cl)cn12	3.93	41.3	> 100			inactive		
N=C(N)N/N=C/c1c(-c2ccc([N+](=O)[O-])cc2)nc2sc(Cl)cn12	0.97	78.8	> 100	50	50	50%		
Cl.N=C(N)N/N=C/c1c(-c2ccc(Cl)c([N+](=O)[O-])c2)nc2sccn12	3.13	81	> 100				Non-toxic	Active
Cc1cn2c(/C=N\NC(=N)N)c(-c3ccc(F)c([N+](=O)[O-])c3)nc2s1	30.7	18.8	78.5			inactive		
N=C(N)N/N=C/c1c(-c2cccc([N+](=O)[O-])c2)nc2sc(Cl)cn12	6.03	> 100	> 100					
COc1cc([N+](=O)[O-])c(OC)cc1-c1nc2sccn2c1/C=N/NC(=N)N	3.58	96	> 100					
N=C(N)N/N=C/c1c(-c2cccc([N+](=O)[O-])c2)nc2sccn12	18.5	> 100	> 100					
Cc1cn2c(/C=N/NC(=N)NN)c(-c3ccc(Cl)c([N+](=O)[O-])c3)nc2s1	18	> 100	> 100					
CCc1cn2c(/C=N/NC(=N)N)c(-c3cc([N+](=O)[O-])c(Cl)cc3Cl)nc2s1	83	59	> 20					
CCCc1cn2c(/C=N/NC(=N)N)c(-c3cccc([N+](=O)[O-])c3)nc2s1	13.2	69.5	> 100					
COc1cc([N+](=O)[O-])c(OC)cc1-c1nc2sc3ccccc3n2c1/C=N/NC(=N)N	10.1	> 100	> 100			inactive		
Cc1sc2nc(-c3cccnc3)c(/C=N/NC(=N)N)n2c1C	100	6.58	> 100					
Cc1cn2c(/C=N/NC(=N)N)c(-c3cc(Cl)sc3Cl)nc2s1	26.5	> 100	> 100					

Now from value to compound, other results behind:

IC50 [1] [µM]	IC50 [2] [µM]	IC50 [3] [µM]	inhibition [4] [%]	inhibition [5] [%]	inhibition [6]	SMILES	Activity (MCF-10A)	Activity (MCF7)
12	> 100	> 100			inactive	N=C(N)N/N=C/c1c(-c2cc(Cl)sc2Cl)nc2sc3ccccc3n12		
86	90	> 100			inactive	N=C(N)N/N=C/c1c(-c2ccc(F)cc2)nc2sc(Cl)cn12		
5.85	90	> 100				Cl.N=C(N)N/N=C/c1c(-c2ccc(Cl)c([N+](=O)[O-])c2)nc2sc(Cl)cn12	Non-toxic	Active
56.7	> 100	> 100			inactive	N=C(N)N/N=C\c1c(-c2ccc(Br)c([N+](=O)[O-])c2)nc2sccn12		
44.8	84.4	> 100				Cc1csc2nc(-c3ccc(Cl)c([N+](=O)[O-])c3)c(/C=N/NC(=N)N)n12		
20.9	> 100	> 100				CCCc1cn2c(/C=N/NC(=N)N)c(-c3ccc([N+](=O)[O-])cc3)nc2s1		
53.8	77.5	> 100			inactive	N=C(N)N/N=C\c1c(-c2ccc(F)c([N+](=O)[O-])c2)nc2sccn12		
> 100	> 100	> 100			inactive	N=C(N)N/N=C\c1c(-c2ccc(F)cc2)nc2sccn12		
8.55	93.5	> 100			inactive	N#Cc1ccc(-c2nc3sc(Cl)cn3c2/C=N/NC(=N)N)cc1		
> 100	> 50	> 100			inactive	Cc1cn2c(/C=N\NC(=N)N)c(-c3ccc(F)cc3)nc2s1		
8.26	> 100	> 100			inactive	N=C(N)N/N=C/c1c(-c2cc(Cl)sc2Cl)nc2sc(Cl)cn12		
5.93	> 100	> 100				N=C(N)N/N=C/c1c(-c2cc([N+](=O)[O-])c(Cl)cc2Cl)nc2sccn12		
